What all share (assay): growth of human tumour cells (NCI), 48 h
Experiment [1] concerns SNB-75.
Experiment [2] deals with HCT-116.
Experiment [3] deals with SK-MEL-2.
The test system of experiment [4] is UACC-257.
The subject of experiment [5] is IGROV-1.
For experiment [6], the system named is SK-MEL-28.
Experiment [7] relates to NCI-H460.
Experiment [8] has as its system OVCAR-5.
Experiment [9] concerns HCC 2998.
Experiment [10] relates to HOP-92.
Experiment [11] relates to Malme-3M.
Experiment [12] deals with SK-OV-3.
In experiment [13] the test system is HL-60.
Experiment [14] concerns OVCAR-8.
In experiment [15] the test system is SF-295.
In experiment [16] the test system is HCT-15.
For experiment [17], the system named is HOP-62.
Experiment [18] has as its system NCI-H23.
For experiment [19], the system named is K562.
Experiment [20] relates to COLO 205.

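Each compound was tested at five concentrations against cells in 96-well plates for 48 hours. Abbreviation: GI50, concentration required for 50% inhibition of growth.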 The source made the active and inactive calls. Cut-off read from the data, not from the text of the source: active = GI50 up to about 1.1 µM and inactive = higher.

8 compounds from ChEMBL document CHEMBL1201862, “PubChem BioAssay data set” (2004) can be followed below.

As for `CC12CCC(=O)N1c1cnccc1N2` (stereo not drawn), the GI50 in experiment [1], in [2], in experiment [3], in experiment [4], in experiment [5] and in [6] was > 100 µM (inactive) in each case. The GI50 in [7], in experiment [8], in experiment [9], in experiment [10], in [11] and in experiment [12] was > 100 µM (inactive) in each case. Moreover, the GI50 in [13] is > 100 µM (inactive); in [14], > 100 µM (inactive); in experiment [15], > 100 µM (inactive); in experiment [16], above 100 µM; in [17], > 100 µM (inactive); in experiment [18], > 100 µM (inactive). The GI50 in experiment [19] and in [20] was > 100 µM (inactive) each time.

Turning to `CC1(C)OC[C@H](C(=N)OCc2ccccc2)O1`, the GI50 in [1], in [2], in experiment [3], in experiment [4], in [5] and in experiment [6] was > 100 µM (inactive) each time. The GI50 in [7], in [8], in experiment [9], in experiment [10], in experiment [11] and in experiment [12] was > 100 µM (inactive) each time. The GI50 was > 100 µM (inactive) in experiment [13]; > 100 µM (inactive) in [14]; > 100 µM (inactive) in experiment [15]; above 100 µM in experiment [16]; > 100 µM (inactive) in experiment [17]; > 100 µM (inactive) in experiment [18]. In addition, the GI50 in experiment [19] and in experiment [20] was > 100 µM (inactive) in each case.

Regarding `N#C/C(=C\c1ccc(Cl)cc1)c1nc2ccccc2c(=O)[nH]1`, the GI50 is 17.1 µM (inactive) in experiment [1]; > 100 µM (inactive) in experiment [2]; > 100 µM (inactive) in experiment [3]; > 100 µM (inactive) in experiment [4]; > 100 µM (inactive) in experiment [5]; > 100 µM (inactive) in [6]. Also, the GI50 in [7] is > 100 µM (inactive); in experiment [8] it was > 100 µM (inactive); in experiment [9], > 100 µM (inactive); in [10], 11 µM (inactive); in [11], > 100 µM (inactive); in experiment [12], > 100 µM (inactive). Also, the GI50 in experiment [13] was > 100 µM (inactive); in experiment [14] it was > 100 µM (inactive); in experiment [15], 47.4 µM (inactive); in experiment [16] it was above 100 µM; in experiment [17], 33 µM (inactive); in experiment [19], > 100 µM (inactive). In addition, the GI50 in [20] was > 100 µM (inactive).

On to `O=C(NN1C(=O)CSC1c1ccc(C(F)(F)F)cc1)c1ccncc1` (stereo not drawn), for which the GI50 in experiment [1], in experiment [2], in experiment [3], in [4], in experiment [5] and in [6] was > 100 µM (inactive) each time. The GI50 in experiment [7], in experiment [8], in [9], in [10], in experiment [11] and in [12] was > 100 µM (inactive) in each case. Also, the GI50 in experiment [13] was > 100 µM (inactive); in experiment [14], > 100 µM (inactive); in experiment [15], > 100 µM (inactive); in experiment [16], above 100 µM; in experiment [17], > 100 µM (inactive); in experiment [18], > 100 µM (inactive). Besides, the GI50 in experiment [19] was > 100 µM (inactive).

`Nc1n[nH]c2c1Cc1c(n(Cc3ccc(Cl)cc3)c3ccccc13)C(=O)N2`: the GI50 in [1] was 16.2 µM (inactive); in experiment [2] it was 8.15 µM (inactive); in experiment [3], 15.9 µM (inactive); in [4], 18 µM (inactive); in [5], 12.5 µM (inactive); in [6] it was 38.1 µM (inactive). Also, the GI50 is 14 µM (inactive) in experiment [7]; 14.2 µM (inactive) in experiment [8]; 10.4 µM (inactive) in [9]; 12.9 µM (inactive) in [10]; 14.7 µM (inactive) in experiment [11]; 18.1 µM (inactive) in [12]. For the same compound, the GI50 was 3.03 µM (inactive) in experiment [13]; 16.5 µM (inactive) in experiment [14]; 17.3 µM (inactive) in [15]; 4.12 µM in experiment [16]; 15 µM (inactive) in [17]; 10.6 µM (inactive) in experiment [18]. The GI50 in experiment [19] is 2.65 µM (inactive); in experiment [20], 11.5 µM (inactive).

Turning to `C=C1CC[C@@H](Br)C(C)(C)[C@]12CCC(C)(O)C(Cl)C2` (stereo partly drawn), the GI50 in [1] is 31 µM (inactive); in experiment [2], 18.1 µM (inactive); in experiment [3], 18.5 µM (inactive); in [4], 17.9 µM (inactive); in [5], 23.1 µM (inactive); in experiment [6], 20 µM (inactive). In addition, the GI50 was 17 µM (inactive) in [7]; 19.5 µM (inactive) in experiment [8]; 23.3 µM (inactive) in [9]; 23 µM (inactive) in [10]; 30.3 µM (inactive) in experiment [11]; 19.5 µM (inactive) in experiment [12]. In addition, the GI50 is 19.9 µM (inactive) in [13]; 18.7 µM (inactive) in experiment [14]; 20.6 µM (inactive) in [15]; 16 µM in [16]; 23.3 µM (inactive) in experiment [17]; 26.1 µM (inactive) in experiment [18]. Besides, the GI50 in experiment [19] was 22.4 µM (inactive); in experiment [20] it was 16 µM (inactive).

On to `CCOC(=O)CCc1c(C)c2c(O)cc(O)cc2oc1=O`, for which the GI50 in experiment [1] is > 100 µM (inactive); in [2], 15.8 µM (inactive); in [3] it was > 76.4 µM (inactive); in experiment [4], > 100 µM (inactive); in experiment [5] it was > 100 µM (inactive); in [6] it was > 100 µM (inactive). Also, the GI50 in experiment [7], in [8], in experiment [9], in experiment [10], in experiment [11] and in experiment [12] was > 100 µM (inactive) each time. In addition, the GI50 in [13] was 42.1 µM (inactive); in experiment [14] it was > 100 µM (inactive); in [15] it was > 68.9 µM (inactive); in [16] it was 99.1 µM; in [17], > 100 µM (inactive); in experiment [18], > 100 µM (inactive). The GI50 in experiment [19] and in experiment [20] was > 100 µM (inactive) each time.

Consider `CC1=C(SCCO)C(=O)c2ccccc2C1=O`, for which the GI50 is 16.5 µM (inactive) in experiment [1]; 4.76 µM (inactive) in [2]; 11.7 µM (inactive) in [3]; 13 µM (inactive) in experiment [4]; 14.2 µM (inactive) in experiment [5]; 11 µM (inactive) in experiment [6]. Moreover, the GI50 in experiment [7] is 13.2 µM (inactive); in experiment [8], 17.9 µM (inactive); in experiment [9], 16.6 µM (inactive); in [10], 1.7 µM (inactive); in experiment [11], 14.2 µM (inactive); in [12], 16 µM (inactive). Also, the GI50 is 0.55 µM (active) in [13]; 12.4 µM (inactive) in experiment [14]; 17.2 µM (inactive) in experiment [15]; 7.35 µM in experiment [16]; 15.9 µM (inactive) in [17]; 12.6 µM (inactive) in experiment [18]. For the same compound, the GI50 in [19] is 3.18 µM (inactive); in experiment [20], 11.1 µM (inactive).
